Earlier results as cited in PMC8416020 (eLife, 2021).
Where no end group is shown, it is not given here.

System: isolated GHSR
Settings: ghrelin versus SPA; ref Mary et al., 2012; cited from earlier work
From the text: We then used 7H4MC fluorescence to monitor the impact of ligand binding on the hydration pattern of GHSR.

Substance: ghrelin: natural full agonist of GHSR, natural peptide agonist (GSSFLSPEHQRVQQRKESKKPPAKLQPR; not fully specified; ends and bridges not checked; UniProt Q9UBU3 24-51, looked up)
- effect of ghrelin and SPA on GHSR activation and conformational landscape: opposite effect of ghrelin and SPA on GHSR activation and conformational landscape
